Measurements from PMC2680961, “Homologous desensitization of signalling by the alpha (α) isoform of the human thromboxane A2 receptor: A specific role for nitric oxide signalling” (Biochimica et Biophysica Acta, 2007).

Assays:
[1] = design: method as in PMID 10508233; conditions: rapidly hydrolysed to inactive metabolite TXB2; estimated; cited from earlier work
eNOS = eNOS phosphorylation (anti-phospho eNOS^Ser1177 western blot); assay type: cell-based, human; conditions: HEK.TPα cells (also HEK 293, HEK.TPβ); 1 μM U46619 or 10 U/ml Thrombin, 5 min, 37 °C
Protocol: In order to assess eNOS phosphorylation, HEK.TPα, HEK.TPβ or HEK 293 cells (2 × 10^6 cells/10-cm dish) were plated some 48 h prior to experimentation. Cells were incubated with vehicle, 1 μM U46619 or 10 U/ml Thrombin for 5 min at 37 °C and aliquots of whole cell protein (100 μg/lane) were analysed by SDS-PAGE/western blot. Blots were initially screened using the anti-phospho eNOS^1177 as per supplier's instructions (Cell Signalling Technology) and, following stripping, were subsequently re-screened using the anti-eNOS (Transduction Laboratories).

Compound	half-life [1]	eNOS phosphorylation at Ser^1177 (eNOS)
CCCCC[C@H](O)/C=C/[C@H]1O[C@H]2C[C@H](O2)[C@@H]1C/C=C\CCCC(=O)O [TXA2]	30 s	–
thrombin	–	readily lead to eNOS phosphorylation
